Where “and” joins values, the source holds several entries; their conditions need not be identical. Identical values can stand only once. Like-named read-outs stand apart in the source and are kept apart here.
Columns and labels:
[1] = biological target: α-amylase from Bacillus licheniformis (Bacillus licheniformis, UniProt P06278); assay: hydrolysis of cooked dent corn starch with other additives; assay type: biochemical; conditions: for effect on rate of enzymatic hydrolysis (in words): 10 mM additive, cooked dent corn starch; for Relative Activity: cooked dent corn starch 0.5%, pH 5.2, 37° C., 10 min
Sequence of α-amylase from Bacillus licheniformis (P06278 30-512): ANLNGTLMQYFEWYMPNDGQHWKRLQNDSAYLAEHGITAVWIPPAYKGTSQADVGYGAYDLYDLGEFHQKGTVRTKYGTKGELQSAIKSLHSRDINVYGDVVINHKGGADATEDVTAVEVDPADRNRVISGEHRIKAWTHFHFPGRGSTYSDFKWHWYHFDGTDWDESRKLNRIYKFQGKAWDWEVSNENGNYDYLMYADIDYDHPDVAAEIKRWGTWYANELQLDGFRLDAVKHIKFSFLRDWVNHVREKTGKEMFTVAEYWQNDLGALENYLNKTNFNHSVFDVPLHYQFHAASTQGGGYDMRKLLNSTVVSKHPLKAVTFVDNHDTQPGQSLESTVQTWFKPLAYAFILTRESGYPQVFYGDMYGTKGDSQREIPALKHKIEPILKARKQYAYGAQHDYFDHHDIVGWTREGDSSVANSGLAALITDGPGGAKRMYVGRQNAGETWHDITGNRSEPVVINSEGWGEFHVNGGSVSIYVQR
Protocol: The α-amylase from Bacillus licheniformis was added to a sodium acetate buffer solution, pH 5.2, […], di-sodium EDTA, NH4^+, Sr^++, Na^+, K^+, Al^+++, or Ba^++ and 0.5% by weight cooked dent corn starch. The separate reaction mixtures were incubated at 37° C. for 10 minutes. The control reaction mixture contained enzyme, buffer, and starch but no additive. The starch hydrolysis reaction was stopped by combining the reaction mixture with a solution containing DNSA and heating for 30 min at 85° C. The absorbance of the control and test samples was measured at 562 nm to monitor the amount of reducing sugar in each sample.

[2] = biological target: β-amylase from barley (Hordeum vulgare, UniProt P16098); assay: as above; assay type: biochemical; conditions: for effect on rate of enzymatic hydrolysis (in words): 10 mM additive, cooked dent corn starch; for Relative Activity: cooked dent corn starch 0.5%, pH 5.2, 37° C., 10 min
Sequence of β-amylase from barley (P16098 whole entry): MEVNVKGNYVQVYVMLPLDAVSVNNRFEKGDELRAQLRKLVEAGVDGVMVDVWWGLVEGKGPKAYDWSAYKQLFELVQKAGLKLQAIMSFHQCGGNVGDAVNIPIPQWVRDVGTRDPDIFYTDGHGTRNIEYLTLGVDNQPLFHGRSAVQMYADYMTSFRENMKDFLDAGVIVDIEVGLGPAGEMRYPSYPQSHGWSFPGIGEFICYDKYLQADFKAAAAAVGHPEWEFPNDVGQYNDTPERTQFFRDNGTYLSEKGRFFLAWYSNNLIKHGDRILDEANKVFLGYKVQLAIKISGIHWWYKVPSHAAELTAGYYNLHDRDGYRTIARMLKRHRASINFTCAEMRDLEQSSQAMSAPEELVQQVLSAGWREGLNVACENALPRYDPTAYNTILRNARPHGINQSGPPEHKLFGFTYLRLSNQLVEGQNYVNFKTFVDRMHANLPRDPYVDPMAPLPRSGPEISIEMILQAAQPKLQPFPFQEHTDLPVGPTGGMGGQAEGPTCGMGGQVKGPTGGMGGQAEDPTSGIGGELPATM
Protocol: […] The separate reaction mixtures were incubated at 37° C. for 10 minutes. The control reaction mixture contained enzyme, buffer, and starch but no additive. The starch hydrolysis reaction was stopped by combining the reaction mixture with a solution containing DNSA and heating for 30 min at 85° C. The absorbance of the control and test samples was measured at […] to monitor the amount of reducing sugar in each sample.

[3] = biological target: glucoamylase from Aspergillus Niger (Aspergillus niger, UniProt P69328); assay: as above; assay type: biochemical; conditions: for effect on rate of enzymatic hydrolysis (in words): 10 mM additive, cooked dent corn starch; for Relative Activity: cooked dent corn starch 0.5%, pH 5.2, 37° C., 10 min
Sequence of glucoamylase from Aspergillus Niger (P69328 25-640): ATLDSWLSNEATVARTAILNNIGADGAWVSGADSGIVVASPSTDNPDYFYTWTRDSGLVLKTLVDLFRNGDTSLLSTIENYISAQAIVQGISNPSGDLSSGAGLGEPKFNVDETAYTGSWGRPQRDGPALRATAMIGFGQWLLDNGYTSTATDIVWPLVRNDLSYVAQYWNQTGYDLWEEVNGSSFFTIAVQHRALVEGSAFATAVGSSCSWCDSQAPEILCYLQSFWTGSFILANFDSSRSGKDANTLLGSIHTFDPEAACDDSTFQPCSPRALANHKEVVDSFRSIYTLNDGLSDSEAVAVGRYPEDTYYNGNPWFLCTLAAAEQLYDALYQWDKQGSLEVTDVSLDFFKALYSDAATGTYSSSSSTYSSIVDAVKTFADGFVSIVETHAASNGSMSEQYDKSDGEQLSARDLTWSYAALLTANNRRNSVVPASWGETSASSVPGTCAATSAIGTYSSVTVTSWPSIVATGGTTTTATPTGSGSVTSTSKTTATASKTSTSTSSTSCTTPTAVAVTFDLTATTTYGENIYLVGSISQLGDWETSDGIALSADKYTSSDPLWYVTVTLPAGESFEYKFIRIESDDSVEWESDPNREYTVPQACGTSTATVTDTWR
Protocol: The glucoamylase from Aspergillus Niger was added to a sodium acetate buffer solution, pH 5.2, comprising no metal or 10 mM Fe^++, Mg^++, Li^+, Zn^++, Cu^++, Ca^++, di-sodium EDTA, NH4^+, Sr^++, Na^+, K^+, Al^+++, or Ba^++ and 0.5% by weight cooked dent corn starch. The separate reaction mixtures were incubated at 37° C. for 10 minutes. The control reaction mixture contained enzyme, buffer, and starch but no additive. The starch hydrolysis reaction was stopped by combining the reaction mixture with a solution containing DNSA and heating for 30 min at 85° C. The absorbance of the control and test samples was measured at 562 nm to monitor the amount of reducing sugar in each sample.

[4] = tested on: enzyme mixture of purified glucoamylase from mushroom and purified α-amylase from barley; assay: hydrolysis of raw corn starch by enzyme mixture, reducing sugar by DNSA; assay type: biochemical; conditions: for Relative Activity: 10 mM additive, raw corn starch, pH 5.3, 37° C., 20 min; for effect on hydrolysis of raw corn starch (in words): summary of Table 2
Protocol: Enzyme mixture was also pre-incubated with 10 mM Fe^++, Cu^++, Ca^++, Mg^++, or disodium ethylenediamine-tetraacetic acid (EDTA). Thereafter, 40 μl of each pre-incubation solution was added to 15 mg raw corn starch, and the reaction mixture incubated at 37° C. for 20 minutes. The control reaction mixture contained substrate, enzyme, and buffer but no additional metal ions. The starch hydrolysis reaction was stopped by combining the reaction mixture with a solution containing 3,5 dinitrosalicylic acid (DNSA) and heating for 30 min at 85° C. The absorbance of the control and test samples was measured at 562 nm to monitor the amount of reducing sugar in each sample.

[5] = tested on: glucoamylase from Rhizopus sp.; conditions: 1.0 mM manganese salt, raw corn starch, pH 5.3, 37° C.
Protocol: An enzyme solution of the glucoamylase from Rhizopus sp. Was prepared in a sodium acetate buffer, pH 5.3, comprising 1.0 mM manganese chloride, manganese acetate, or manganese sulfate. Thereafter, 40 μl of each enzyme solution was added to 15 mg raw corn starch and the reaction mixtures incubated at 37° C. for 5, 10, 15, 20, or 25 minutes. The starch hydrolysis reaction was stopped by combining the reaction mixture with a solution containing DNSA and heating for 30 min at 85° C. The absorbance of the control and test samples was measured at 562 nm to monitor the amount of reducing sugar in each sample.

Molecule	effect on rate of enzymatic hydrolysis (in words) [1]	Relative Activity ([1]; Additive (10 mM))	effect on rate of enzymatic hydrolysis (in words) [2]	Relative Activity ([2]; Additive (10 mM))	effect on rate of enzymatic hydrolysis (in words) [3]	Relative Activity ([3]; Additive (10 mM))	Relative Activity [4]	effect on hydrolysis of raw corn starch (in words) [4]	Relative Activity ([1]; additive 1 mM)	Relative Activity ([2]; additive 1 mM)	Relative Activity ([3]; additive 1 mM)	% Conversion ([5]; 5 minutes)	% Conversion ([5]; 10 minutes)	% Conversion ([5]; 15 minutes)	% Conversion ([5]; 20 minutes)	% Conversion ([5]; 25 minutes)	% Conversion ([5]; time 0)
[Al+3] [Al^+++]	does not increase the enzymatic rate of hydrolysis	95.1%	do not significantly increase the rate of enzymatic hydrolysis	77.5%	do not significantly increase the rate of enzymatic hydrolysis	96.2%	–	–	–	–	–	–	–	–	–	–	–
[Ba+2] [Ba^++, barium ion]	does not increase the enzymatic rate of hydrolysis	98.1%	increase the rate of enzymatic hydrolysis	114.6%	do not significantly increase the rate of enzymatic hydrolysis	99.3%	–	–	–	–	–	–	–	–	–	–	–
[Ca+2] [Ca^++, calcium ions]	–	119.1% and 94.8% and 99.4% and 90.0%	increase the rate of enzymatic hydrolysis	114.1% and 127.2% and 121.2%	increase the rate of enzymatic hydrolysis	103.8% and 104.4% and 97.4%	97.3%	do not have a similar effect	83.6%	111.8% and 105.8% and 105.0%	108.0%	–	–	–	–	–	–
[Cu+2] [Cu^++]	does not increase the enzymatic rate of hydrolysis	30.0%	do not significantly increase the rate of enzymatic hydrolysis	6.7%	do not significantly increase the rate of enzymatic hydrolysis	33.9%	47.5%	do not have a similar effect	–	–	–	–	–	–	–	–	–
O=C(O)CN(CCN(CC(=O)O)CC(=O)O)CC(=O)O.[Na].[Na] [Disodium EDTA, disodium ethylenediamine-tetraacetic acid]	does not increase the enzymatic rate of hydrolysis	103.8%	do not significantly increase the rate of enzymatic hydrolysis	100.4%	do not significantly increase the rate of enzymatic hydrolysis	57.6%	88.8%	do not have a similar effect	–	–	–	–	–	–	–	–	–
[Fe+2] [Fe^++]	does not increase the enzymatic rate of hydrolysis	101.9%	do not significantly increase the rate of enzymatic hydrolysis	88.7%	do not significantly increase the rate of enzymatic hydrolysis	98.3%	74.0%	do not have a similar effect	–	–	–	–	–	–	–	–	–
[K+] [K^+, potassium ion]	does not increase the enzymatic rate of hydrolysis	82.8%	do not significantly increase the rate of enzymatic hydrolysis	101.1%	increase the rate of enzymatic hydrolysis	113.3%	–	–	–	–	–	–	–	–	–	–	–
[Li+] [Li^+, lithium ion]	does not increase the enzymatic rate of hydrolysis	89.2%	do not significantly increase the rate of enzymatic hydrolysis	101.6%	increase the rate of enzymatic hydrolysis	118.1%	–	–	–	–	–	–	–	–	–	–	–
[Mg+2] [Mg^++, magnesium ion]	does not increase the enzymatic rate of hydrolysis	83.8%	increase the rate of enzymatic hydrolysis	110.8%	do not significantly increase the rate of enzymatic hydrolysis	96.0%	92.4%	do not have a similar effect	–	–	–	–	–	–	–	–	–
O=S(=O)([O-])[O-].[Mn+2] [MnSO4, manganese sulfate]	–	–	–	–	–	–	–	–	–	–	–	0.50%	0.87%	1.12%	1.30%	1.58%	0%
N [NH4^+]	does not increase the enzymatic rate of hydrolysis	86.4%	do not significantly increase the rate of enzymatic hydrolysis	95.1%	do not significantly increase the rate of enzymatic hydrolysis	98.3%	–	–	–	–	–	–	–	–	–	–	–
[Na+] [Na^+]	does not increase the enzymatic rate of hydrolysis	84.2%	do not significantly increase the rate of enzymatic hydrolysis	95.1%	do not significantly increase the rate of enzymatic hydrolysis	97.3%	–	–	–	–	–	–	–	–	–	–	–
[Sr+2] [Sr^++, strontium ion]	does not increase the enzymatic rate of hydrolysis	87.2%	increase the rate of enzymatic hydrolysis	114.1%	do not significantly increase the rate of enzymatic hydrolysis	93.8%	–	–	–	–	–	–	–	–	–	–	–
[Zn+2] [Zn^++]	does not increase the enzymatic rate of hydrolysis	100.2%	do not significantly increase the rate of enzymatic hydrolysis	70.6%	do not significantly increase the rate of enzymatic hydrolysis	57.3%	–	–	–	–	–	–	–	–	–	–	–
manganese acetate [MnOAc]	–	–	–	–	–	–	–	–	–	–	–	0.46%	0.74%	1.04%	1.28%	1.50%	0%
manganese chloride [MnCl2]	–	–	–	–	–	–	–	–	–	–	–	0.44%	0.74%	1.01%	1.22%	1.70%	0%
